As usually defined, the IC50 is the concentration that inhibits the measured activity by half.

Each structure is given as a SMILES string.

The target of assay [1] is T1, IDO1 (Homo sapiens, UniProt P14902). In words: IDO1 Cellular Assay in HeLa Cells Stimulated with IFNγ. It is filed as cell-based. Particulars: IFNγ 100 ng/mL, 300 uM L-tryptophan, about 48 hours incubation, fluorescence readout, read-out: IDO1 HeLa Cell Assay, IC50. Here is the method:
IDO1 Cellular Assay in HeLa Cells Stimulated with IFNγ
HeLa cells were cultured in complete HeLa culture medium (90% EMEM, 10% heat-inactivated fetal bovine serum) and expanded to about 1×10^9 cells. The cells were then collected and frozen down at 1×10^7 cells/vial in 1 mL frozen medium (90% complete HeLa culture medium, 10% DMSO).
Compounds to be tested were serially diluted in ten 3-fold steps in DMSO starting from 10 mM DMSO stocks in Echo low volume plate(s).
Frozen HeLa cells were thawed and transferred into HeLa assay medium (99% complete HeLa culture medium, 1% Pen/Strep) with 20 mL medium/vial of cells. The cells were spun down at 250 g in a table top centrifuge for 5 min and suspended in same volume of HeLa assay medium. The cells were then counted and adjusted to a density of 2×10^5 cells/mL in HeLa assay medium. Sterile L-tryptophan were added to the cells with final concentration of 300 uM L-tryptophan. A small aliquot (2 mL/plate) of HeLa cells were set aside and were not treated with IFNγ, to serve as the Max-E control.
HeLa cells with and without IFNγ were dispensed to the respective wells of 384-well assay plates containing the compounds. The plates were incubated for about 48 hours at a 37° C., 5% CO2 incubator. Afterwards, 12 μL of 0.5 M methyl isonipecotate in dimethyl sulfoxide were added into each well and the plates were sealed and incubated at 37° C. without CO2 overnight. The plates were centrifuged for 1 min at 200×g. The resulting fluorescence was measured in a Spectramax plate reader (Molecular Devices) with a 400 nm excitation filter and a 510 nm emission filter.
Potencies were calculated by […] least squares fit to the four parameter logistic IC50 equation.

The target in assay [2] is T1, IDO1. In words: IDO1 Human Whole Blood Assay. In kind it is cell-based. Particulars: LPS and IFNγ 100 ng/mL, 18 h, kynurenine by LC/MS/MS. As for the experimental part:
IDO1 Human Whole Blood Assay
Compounds to be tested were serially diluted in ten 3-fold steps in DMSO starting from 10 mM. 3 μL of compound dilutions or DMSO alone were then dispensed from the dilution plate into a polypropylene 96-well assay plate containing 97 μL of RPMI medium using an Echo 555 acoustic liquid handler (Labcyte). LPS and IFNγ was prepared in RPMI medium to a 10× of final conc. (1000 ng/mL), final concentration is 100 ng/mL.
Human whole blood was drawn in sodium heparin coated tubes from healthy internal donors. 240 μL of blood was transferred to each of the wells of a v-bottom 96 well plate. 30 μL of compound was transferred from intermediate dilution plate, and incubated for 15 min. 30 μL from stimulants was then transferred to blood and mixed thoroughly. Plate was covered with breathable membrane and incubated at 37° C. for overnight (18 h).
On day 2, isotope labeled standard solutions of kunurenine and tryptophan was made in water at 10× concentration and 30 μL was added to the blood at […] concentration. The assay plates were centrifuged at 300×G for 10 min with no brake to separate plasma from red blood cells. 60 μL of plasma samples was removed without disturbing red blood cells. Plasma was diluted with RPMI in 1:1 ratio and proteins were precipitated out with two volumes of Acetonitrile. The plates were centrifuged at 4000×G for 60 min. 20 μL of supernatant was carefully transferred to a 384 well plate containing 40 μL of 0.1% formic acid in water and analyzed by LC/MS/MS.
LC/MS/MS analyses were performed using Thermo Fisher's LX4-TSQ Quantum Ultra system. This system consists of four Agilent binary high-performance liquid chromatography (HPLC) pumps and a TSQ Quantum Ultra triple quadrupole MS/MS instrument. For each sample, 5 μL were injected onto an Atlantis T3 column (2.1 mm×150 mm, 3 μm particle size) from Waters. The mobile phase gradient pumped at 0.8 mL/min was used to elute the analytes from the column at 25° C. The elution started at 0% B increasing linearly to 25% B at 6.5 min, holding at 25% for 1 min, re-equilibrating to 10 min. Mobile phase A consisted of 0.1% formic acid in water. Mobile phase B consisted of 0.1% of formic acid in acetonitrile. Data was acquired in positive mode using a HESI interface. The operational parameters for the TSQ Quantum Ultra instrument were a spray voltage of 4000 V, capillary temperature of 380° C., vaporizer temperature 400° C., shealth gas 60 arbitrary units, Aux gas 20 arbitrary units, tube lens 85 and collision gas 1.2 mTorr. SRM chromatograms of kynurenine (QI: 209.2>Q3:94.0) and internal standard (QI: 215.3>Q3:98.2) were collected for 90 sec. The peak area was integrated by Xcalibur Quan software. The ratios between the kynurenine generated in the reaction and 2D6-Kynurenine spiked-in internal standard were used to generate percentage inhibition and IC50 values. Compounds were titrated and IC50's were calculated by 4 parameter sigmoidal curve fitting formula.

T1 sequence (P14902 whole entry): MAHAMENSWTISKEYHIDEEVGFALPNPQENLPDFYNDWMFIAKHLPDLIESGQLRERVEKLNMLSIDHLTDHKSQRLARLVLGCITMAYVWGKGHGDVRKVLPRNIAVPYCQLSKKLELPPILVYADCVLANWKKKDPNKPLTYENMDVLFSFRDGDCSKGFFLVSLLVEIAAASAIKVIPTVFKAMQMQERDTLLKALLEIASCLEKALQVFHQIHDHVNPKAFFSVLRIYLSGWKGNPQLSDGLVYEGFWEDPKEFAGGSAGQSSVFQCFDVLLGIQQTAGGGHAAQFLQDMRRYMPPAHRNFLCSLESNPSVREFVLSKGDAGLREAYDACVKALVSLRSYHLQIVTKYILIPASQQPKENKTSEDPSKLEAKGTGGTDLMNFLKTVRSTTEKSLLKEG

As for `N#Cc1cccc(C(=O)Nc2ccc(C3(c4nc5cccc(C(=O)N6CCC(O)CC6)c5[nH]4)CCC3)cn2)c1` [Ex. 37, 3-Cyano-N-(5-(1-(7-(4-hydroxypiperidine-1-carbonyl)-1H-benzo[d]imidazol-2-yl)cyclobutyl)pyridin-2-yl)benzamide], the IC50 was determined as 5.38 nM at IDO1 [1] and 58.2 nM at IDO1 [2].

Values taken from US11103493B2, “Substituted pyridinyl compounds as indoleamine 2,3-dioxygenase (IDO) inhibitors” (Merck Sharp & Dohme Corp., priority 2017, dated 2021).
